From ChEMBL document CHEMBL1134688, “Synthesis, biological evaluation, and pharmacophore generation of new pyridazinone derivatives with affinity toward alpha(1)- and alpha(2)-adrenoceptors” (J Med Chem, 2001)

biological target: Adrenergic receptor alpha-2 (Rattus norvegicus) (UniProt P22086+P19328+P22909); assay: Ratio of binding affinity towards Alpha-2 and alpha-1 adrenergic receptor; type: protein assay

Row | Structure (SMILES) | Ratio
1 | COc1ccccc1N1CCN(CCCCn2nc(N3CCN(C(=O)c4ccco4)CC3)ccc2=O)CC1 | 4.4
2 | COc1ccccc1OCCN1CCN(c2cnn(CCCCCCN3CCN(c4ccccc4Cl)CC3)c(=O)c2Cl)CC1 | 6
3 | COc1ccccc1OCCN1CCN(c2ccc(=O)n(CCCCCCCN3CCN(c4ccccc4OC)CC3)n2)CC1 | 20
4 | O=C(c1ccco1)N1CCN(c2cnn(CCCN3CCN(c4ccccc4Cl)CC3)c(=O)c2Cl)CC1 | 24.3
5 | COc1ccccc1N1CCN(CCCCCCn2ncc(N3CCN(C(=O)c4ccco4)CC3)c(Cl)c2=O)CC1 | 6
6 | O=C(c1ccco1)N1CCN(c2ccc(=O)n(CCCCN3CCN(c4ccccc4Cl)CC3)n2)CC1 | 3
7 | COc1ccccc1OCCN1CCN(c2cnn(CCCN3CCN(c4ccccc4Cl)CC3)c(=O)c2Cl)CC1 | 7.8
8 | COc1ccccc1OCCN1CCN(c2ccc(=O)n(CCCCN3CCN(c4ccccc4Cl)CC3)n2)CC1 | 86.7

More lines, now with the values ahead:

Row | Ratio | Structure (SMILES)
9 | 5 | O=C(c1ccco1)N1CCN(c2cnn(CCCCCN3CCN(c4ccccc4Cl)CC3)c(=O)c2Cl)CC1
10 | 1.5 | O=C(c1ccco1)N1CCN(c2ccc(=O)n(CCN3CCN(c4ccccc4Cl)CC3)n2)CC1
11 | 3.1 | O=C(c1ccco1)N1CCN(c2cnn(CCCCCCCN3CCN(c4ccccc4Cl)CC3)c(=O)c2Cl)CC1
12 | 20 | COc1ccccc1OCCN1CCN(c2ccc(=O)n(CCCCCN3CCN(c4ccccc4Cl)CC3)n2)CC1
13 | 4 | O=C(c1ccco1)N1CCN(c2ccc(=O)n(CCCCCCN3CCN(c4ccccc4Cl)CC3)n2)CC1
14 | 25.5 | COc1ccccc1OCCN1CCN(c2cnn(CCN3CCN(c4ccccc4OC)CC3)c(=O)c2Cl)CC1

biological target: T1, Adrenergic receptor alpha-1 (Rattus norvegicus, UniProt P15823+P23944+P43140); assay: Binding affinity towards alpha-1 adrenergic receptor in rat cortex membrane using [3H]-prazosin radioligand; type: cell membranes
T1 sequence (P15823 whole entry): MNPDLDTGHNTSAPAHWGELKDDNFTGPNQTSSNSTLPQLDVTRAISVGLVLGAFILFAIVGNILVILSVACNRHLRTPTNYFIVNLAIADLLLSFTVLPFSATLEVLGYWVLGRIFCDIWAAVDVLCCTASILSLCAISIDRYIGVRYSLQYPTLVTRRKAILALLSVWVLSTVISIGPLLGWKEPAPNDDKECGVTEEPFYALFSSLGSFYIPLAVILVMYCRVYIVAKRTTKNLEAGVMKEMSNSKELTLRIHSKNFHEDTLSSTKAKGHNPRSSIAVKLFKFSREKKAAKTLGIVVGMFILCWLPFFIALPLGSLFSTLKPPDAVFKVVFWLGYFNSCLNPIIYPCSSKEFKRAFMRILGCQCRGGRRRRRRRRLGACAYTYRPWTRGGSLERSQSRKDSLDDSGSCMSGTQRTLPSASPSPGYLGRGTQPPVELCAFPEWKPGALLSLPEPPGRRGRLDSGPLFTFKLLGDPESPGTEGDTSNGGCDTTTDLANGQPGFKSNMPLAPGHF
T1 sequence (P23944 whole entry): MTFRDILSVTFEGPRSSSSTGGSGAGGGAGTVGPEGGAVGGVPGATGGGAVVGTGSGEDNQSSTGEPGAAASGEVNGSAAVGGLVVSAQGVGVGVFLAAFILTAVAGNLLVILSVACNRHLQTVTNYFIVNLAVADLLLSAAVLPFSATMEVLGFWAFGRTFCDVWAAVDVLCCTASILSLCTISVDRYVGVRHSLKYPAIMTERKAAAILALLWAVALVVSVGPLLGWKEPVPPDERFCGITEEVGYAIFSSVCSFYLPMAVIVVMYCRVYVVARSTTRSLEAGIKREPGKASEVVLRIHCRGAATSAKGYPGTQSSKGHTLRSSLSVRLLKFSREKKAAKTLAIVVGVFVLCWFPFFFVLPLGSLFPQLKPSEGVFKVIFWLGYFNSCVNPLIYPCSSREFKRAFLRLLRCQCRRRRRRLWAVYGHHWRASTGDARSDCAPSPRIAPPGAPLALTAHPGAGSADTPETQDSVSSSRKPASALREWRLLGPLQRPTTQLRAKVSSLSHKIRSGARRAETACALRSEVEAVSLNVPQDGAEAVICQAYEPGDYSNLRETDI
T1 sequence (P43140 whole entry): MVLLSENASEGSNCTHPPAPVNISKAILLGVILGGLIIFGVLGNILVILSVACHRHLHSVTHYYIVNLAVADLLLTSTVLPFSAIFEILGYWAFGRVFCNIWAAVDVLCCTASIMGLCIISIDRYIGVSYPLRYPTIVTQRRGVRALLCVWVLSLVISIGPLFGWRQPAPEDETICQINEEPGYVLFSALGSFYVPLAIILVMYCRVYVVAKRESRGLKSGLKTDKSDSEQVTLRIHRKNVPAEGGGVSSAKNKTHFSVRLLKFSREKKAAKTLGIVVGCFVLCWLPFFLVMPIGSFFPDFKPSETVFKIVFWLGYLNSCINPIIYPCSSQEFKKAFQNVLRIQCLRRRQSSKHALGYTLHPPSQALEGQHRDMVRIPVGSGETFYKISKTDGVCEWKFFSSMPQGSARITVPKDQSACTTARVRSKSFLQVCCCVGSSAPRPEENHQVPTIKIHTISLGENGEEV

Row | Structure (SMILES) | Ki [nM]
15 | COc1ccccc1N1CCN(CCCCn2nc(N3CCN(C(=O)c4ccco4)CC3)ccc2=O)CC1 | 180
16 | COc1ccccc1OCCN1CCN(c2cnn(CCCCCCN3CCN(c4ccccc4Cl)CC3)c(=O)c2Cl)CC1 | 4.2
17 | COc1ccccc1OCCN1CCN(c2ccc(=O)n(CCCCCCCN3CCN(c4ccccc4OC)CC3)n2)CC1 | 2.3
18 | O=C(c1ccco1)N1CCN(c2cnn(CCCN3CCN(c4ccccc4Cl)CC3)c(=O)c2Cl)CC1 | 3.5
19 | COc1ccccc1N1CCN(CCCCCCn2ncc(N3CCN(C(=O)c4ccco4)CC3)c(Cl)c2=O)CC1 | 4.1
20 | O=C(c1ccco1)N1CCN(c2ccc(=O)n(CCCCN3CCN(c4ccccc4Cl)CC3)n2)CC1 | 7.9
21 | COc1ccccc1OCCN1CCN(c2cnn(CCCN3CCN(c4ccccc4Cl)CC3)c(=O)c2Cl)CC1 | 27.8
22 | COc1ccccc1OCCN1CCN(c2ccc(=O)n(CCCCN3CCN(c4ccccc4Cl)CC3)n2)CC1 | 0.8

Second part, the molecule after the results:

Row | Ki [nM] | Structure (SMILES)
23 | 3.6 | O=C(c1ccco1)N1CCN(c2cnn(CCCCCN3CCN(c4ccccc4Cl)CC3)c(=O)c2Cl)CC1
24 | 34 | O=C(c1ccco1)N1CCN(c2ccc(=O)n(CCN3CCN(c4ccccc4Cl)CC3)n2)CC1
25 | 11.5 | O=C(c1ccco1)N1CCN(c2cnn(CCCCCCCN3CCN(c4ccccc4Cl)CC3)c(=O)c2Cl)CC1
26 | 7 | COc1ccccc1OCCN1CCN(c2ccc(=O)n(CCCCCN3CCN(c4ccccc4Cl)CC3)n2)CC1
27 | 5.9 | O=C(c1ccco1)N1CCN(c2ccc(=O)n(CCCCCCN3CCN(c4ccccc4Cl)CC3)n2)CC1
28 | 16 | COc1ccccc1OCCN1CCN(c2cnn(CCN3CCN(c4ccccc4OC)CC3)c(=O)c2Cl)CC1

biological target: T2, Adrenergic receptor alpha-2 (Rattus norvegicus, UniProt P22086+P19328+P22909); assay: Binding affinity towards alpha-2 adrenergic receptor in rat cortex membrane using [3H]rauwolscine radioligand; type: cell membranes
T2 sequence (P22086 whole entry): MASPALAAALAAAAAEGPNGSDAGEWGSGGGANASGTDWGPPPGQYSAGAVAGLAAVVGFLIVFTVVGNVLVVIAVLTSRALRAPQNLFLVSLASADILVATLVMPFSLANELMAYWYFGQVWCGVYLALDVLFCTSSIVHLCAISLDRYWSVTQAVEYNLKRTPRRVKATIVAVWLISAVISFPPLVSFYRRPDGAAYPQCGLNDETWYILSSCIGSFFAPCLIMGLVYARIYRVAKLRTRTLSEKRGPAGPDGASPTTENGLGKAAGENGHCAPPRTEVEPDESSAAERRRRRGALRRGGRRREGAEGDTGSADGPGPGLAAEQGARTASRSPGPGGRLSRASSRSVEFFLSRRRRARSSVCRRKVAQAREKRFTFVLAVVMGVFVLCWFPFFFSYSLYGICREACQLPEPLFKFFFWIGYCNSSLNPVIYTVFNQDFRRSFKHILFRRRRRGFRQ
T2 sequence (P19328 whole entry): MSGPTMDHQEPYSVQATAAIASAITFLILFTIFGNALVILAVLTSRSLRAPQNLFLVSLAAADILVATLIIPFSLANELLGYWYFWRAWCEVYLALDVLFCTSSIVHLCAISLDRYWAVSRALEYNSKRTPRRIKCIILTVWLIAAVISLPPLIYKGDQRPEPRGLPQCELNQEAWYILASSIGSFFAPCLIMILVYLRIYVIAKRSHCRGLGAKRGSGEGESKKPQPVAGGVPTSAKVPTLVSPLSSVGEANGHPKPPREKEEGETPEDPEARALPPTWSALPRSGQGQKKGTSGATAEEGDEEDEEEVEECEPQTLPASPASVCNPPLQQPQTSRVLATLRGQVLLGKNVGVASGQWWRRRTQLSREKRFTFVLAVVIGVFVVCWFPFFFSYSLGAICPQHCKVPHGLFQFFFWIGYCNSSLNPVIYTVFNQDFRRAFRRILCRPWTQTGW
T2 sequence (P22909 whole entry): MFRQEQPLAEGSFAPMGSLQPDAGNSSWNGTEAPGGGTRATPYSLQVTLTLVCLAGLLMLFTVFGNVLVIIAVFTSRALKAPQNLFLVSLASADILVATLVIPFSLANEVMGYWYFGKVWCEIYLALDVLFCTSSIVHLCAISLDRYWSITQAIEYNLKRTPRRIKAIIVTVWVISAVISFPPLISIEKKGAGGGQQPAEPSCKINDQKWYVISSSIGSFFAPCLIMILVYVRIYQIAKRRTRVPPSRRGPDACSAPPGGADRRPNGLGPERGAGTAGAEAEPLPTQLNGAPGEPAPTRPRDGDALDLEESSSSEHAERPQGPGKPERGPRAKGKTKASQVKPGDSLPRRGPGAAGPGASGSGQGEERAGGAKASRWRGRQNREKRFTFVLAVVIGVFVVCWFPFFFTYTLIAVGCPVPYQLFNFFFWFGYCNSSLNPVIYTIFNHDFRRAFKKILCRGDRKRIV

Row | Structure (SMILES) | Ki [nM]
29 | COc1ccccc1N1CCN(CCCCn2nc(N3CCN(C(=O)c4ccco4)CC3)ccc2=O)CC1 | 790
30 | COc1ccccc1OCCN1CCN(c2cnn(CCCCCCN3CCN(c4ccccc4Cl)CC3)c(=O)c2Cl)CC1 | 25.2
31 | COc1ccccc1OCCN1CCN(c2ccc(=O)n(CCCCCCCN3CCN(c4ccccc4OC)CC3)n2)CC1 | 45.8
32 | O=C(c1ccco1)N1CCN(c2cnn(CCCN3CCN(c4ccccc4Cl)CC3)c(=O)c2Cl)CC1 | 85
33 | COc1ccccc1N1CCN(CCCCCCn2ncc(N3CCN(C(=O)c4ccco4)CC3)c(Cl)c2=O)CC1 | 24.5
34 | O=C(c1ccco1)N1CCN(c2ccc(=O)n(CCCCN3CCN(c4ccccc4Cl)CC3)n2)CC1 | 24
35 | COc1ccccc1OCCN1CCN(c2cnn(CCCN3CCN(c4ccccc4Cl)CC3)c(=O)c2Cl)CC1 | 219
36 | COc1ccccc1OCCN1CCN(c2ccc(=O)n(CCCCN3CCN(c4ccccc4Cl)CC3)n2)CC1 | 69.4

More lines, now with the values ahead:

Row | Ki [nM] | Structure (SMILES)
37 | 18 | O=C(c1ccco1)N1CCN(c2cnn(CCCCCN3CCN(c4ccccc4Cl)CC3)c(=O)c2Cl)CC1
38 | 52.6 | O=C(c1ccco1)N1CCN(c2ccc(=O)n(CCN3CCN(c4ccccc4Cl)CC3)n2)CC1
39 | 36.2 | O=C(c1ccco1)N1CCN(c2cnn(CCCCCCCN3CCN(c4ccccc4Cl)CC3)c(=O)c2Cl)CC1
40 | 138 | COc1ccccc1OCCN1CCN(c2ccc(=O)n(CCCCCN3CCN(c4ccccc4Cl)CC3)n2)CC1
41 | 23.7 | O=C(c1ccco1)N1CCN(c2ccc(=O)n(CCCCCCN3CCN(c4ccccc4Cl)CC3)n2)CC1
42 | 409 | COc1ccccc1OCCN1CCN(c2cnn(CCN3CCN(c4ccccc4OC)CC3)c(=O)c2Cl)CC1
